Experimental findings from US10787432B2, “N-[(pyridyloxy)propanyl]benzamides” (Boehringer Ingelheim International GmbH, priority 2016, dated 2020) are described below.

One series concerns the target T1, human orexin 2 receptor (Homo sapiens, UniProt O43614).
T1 construct: stably expressing the full-length human orexin 2 receptor; expressed in transfected cells; host or cells: CHO-K1 (CHO-K1/hOX2), co-expressing aequorin
T1 sequence (O43614 1-444): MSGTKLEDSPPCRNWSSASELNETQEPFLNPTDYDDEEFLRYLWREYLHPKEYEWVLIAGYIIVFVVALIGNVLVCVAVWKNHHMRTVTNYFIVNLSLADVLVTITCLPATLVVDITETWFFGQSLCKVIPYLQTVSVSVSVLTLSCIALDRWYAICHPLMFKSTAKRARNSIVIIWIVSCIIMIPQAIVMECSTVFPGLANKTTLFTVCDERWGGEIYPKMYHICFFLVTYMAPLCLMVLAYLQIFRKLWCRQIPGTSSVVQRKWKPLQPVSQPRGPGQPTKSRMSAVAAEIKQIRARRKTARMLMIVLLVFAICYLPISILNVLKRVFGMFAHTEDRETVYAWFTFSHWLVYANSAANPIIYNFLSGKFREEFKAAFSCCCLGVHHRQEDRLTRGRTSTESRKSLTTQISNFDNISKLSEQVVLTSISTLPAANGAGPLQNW
As to the kind of experiment: Assay B: In vitro testing of OX2R potency: OX2R IP1 (HTRF, CHO-K1/hOX2 cells, Orexin A as agonist). Format: cell-based. The following applies: Orexin A 0.5 nM. An excerpt: Activation of the orexin receptors expressed in cell lines results in an increase in intracellular IP3 concentration. IP1, a downstream metabolite of IP3, accumulates in cells following receptor activation and is stable in the presence of LiCl. Using Homogeneous Time-Resolved Fluorescence technology with Lumi4-Tb cryptate (commercially available from Cisbio Bioassay.) and a suitable fluorescence plate reader. […] Chem. Genomics 2009, 3, 22-32. This technique is used to characterize pharmacological modification of the orexin receptors.
B. In Vitro Testing of OX2R Potency: OX2R IP1
IP1 measurements are performed in CHO-K1 cells stably expressing the full-length human orexin 2 receptor and the aequorin photoprotein. Cells are cultivated in Ham's nutrient mixture F12 medium with 10% fetal calf serum, in a 37° C., 95% humidity and 5% CO2 incubator. The CHO-K1/hOX2 cell mass is expanded to larger cell numbers. The cells are obtained as frozen cells in cryo-vials and stored until use at −150° C. The viability of the cells after thawing is >90%. In preparation for the assay, 24 hours before the assay, the cells are thawed at 37° C. and immediately diluted with cell culture medium. After centrifugation, the cell pellet is resuspended in medium and then distributed into the assay plates with a density of 5000 cells/25 μL per well. The plates are incubated for one hour at room temperature to reduce edge effects before they are incubated for 24 hours at 37° C./5% CO2. Compounds are prepared by a 8-point serial dilution in DMSO and a final dilution step into assay buffer (HBSS with 20 mM HEPES, 0.1% BSA and 50 mM LiCl, pH 7.4) to ensure a final DMSO concentration of 1% in the assay.
On the day of the assay, cells in the plate are washed twice with 60 μL assay buffer (20 μL buffer remained in the wells after washing), followed by adding 5 μL per well of compounds diluted in assay buffer. After 15 minutes of incubation at room temperature 5 μL per well of Orexin A peptide (final concentration: 0.5 nM) dissolved in assay buffer is added to the assay plate. The assay plate is incubated for 60 minutes at 37° C. Then 5 μL per well of Anti-IP1-Cryptate Tb solution and 5 μL per well of IP1-d2 dilution are added to all well of the plate and the plate is incubated for a further 60 minutes light protected at room temperature. The emission at 615 nm and 665 nm (Excitation wavelength: 320 nm) are measured using an EnVision reader (PerkinElmer). The ratio between the emission at 665 nm and 615 is calculated by the reader.
8-point four parametric non-linear curve fitting and determination of IC50 values and Hill slopes is performed using a regular analysis software e.g. AssayExplorer (Accelrys). In order to establish an agonist concentration independent parameter, Kb values are calculated using the following equation: IC50/((2+(A/EC50)n)^1/n−1) (with A=concentration agonist, EC50=EC50 agonist, n=Hill slope agonist) (see P. Leff, I. G. Dougall, Trends Pharmacol. Sci. 1993, 14(4), 110-112).
Kb values from Assay A (OX1R) and Assay B (OX2R) can then provide a selectivity ratio which is independent of the agonist (Orexin A) concentration.
Consider `CCN(C(=O)c1ccc(F)cc1-c1nnc(C)o1)[C@@H](C)COc1ncc(C(F)(F)F)cc1F` [Example 55], for which the Kb was 3100 nM.
Still for that read-out and setting: in the case of `CCN(C(=O)c1ccccc1-c1ncccn1)[C@@H](C)COc1ccc(C(F)(F)F)cn1` [Example 102] it was 27 nM; in that of `CCN(C(=O)c1cccc(C)c1-c1nnc(C)o1)[C@@H](C)COc1ccc(C(F)(F)F)cn1` [Example 20], 35 nM.
Still for that read-out and setting: in the case of `CCN(C(=O)c1cc(F)ccc1-n1nccn1)[C@@H](C)COc1ccc(C(F)(F)F)cn1` [Example 3] it was 44 nM; in that of `CCN(C(=O)c1cccc(F)c1-n1nccn1)[C@@H](C)COc1ncc(Br)cc1F` [Example 112], 96 nM.
`CCN(C(=O)c1cc(F)cc(F)c1-n1nccn1)[C@@H](C)COc1ccc(Cl)cn1` [Example 32] displayed a Kb of 117 nM.
Still for that read-out and setting: in the case of `CCN(C(=O)c1cccc(F)c1-c1nnc(C)o1)[C@@H](C)COc1ccc(C(F)(F)F)cn1` [Example 18] it was 218 nM; in that of `CCN(C(=O)c1cc(C#N)ccc1-n1nccn1)[C@@H](C)COc1ncc(C(F)(F)F)cc1F` [Example 57], 203 nM; in that of `CCN(C(=O)c1ccc(C)cc1-c1nnc(C)o1)[C@@H](C)COc1ccc(Cl)cn1` [Example 38], 877 nM.
The same measure, in the same setting: the figure for `CC[C@@H](CNc1ccc(Cl)cn1)N(C)C(=O)c1cc(C)ccc1-n1nccn1` [Ex 1 in WO2016/034882, reference compound] is 36 nM.

A further series deals with T2, human Orexin 1 receptor (Homo sapiens, UniProt O43613).
T2 construct: stably expressing the full-length human Orexin 1 receptor; expressed in transfected cells; host or cells: CHO-K1 (CHO-K1/hOX1), co-expressing aequorin
T2 sequence (O43613 1-425): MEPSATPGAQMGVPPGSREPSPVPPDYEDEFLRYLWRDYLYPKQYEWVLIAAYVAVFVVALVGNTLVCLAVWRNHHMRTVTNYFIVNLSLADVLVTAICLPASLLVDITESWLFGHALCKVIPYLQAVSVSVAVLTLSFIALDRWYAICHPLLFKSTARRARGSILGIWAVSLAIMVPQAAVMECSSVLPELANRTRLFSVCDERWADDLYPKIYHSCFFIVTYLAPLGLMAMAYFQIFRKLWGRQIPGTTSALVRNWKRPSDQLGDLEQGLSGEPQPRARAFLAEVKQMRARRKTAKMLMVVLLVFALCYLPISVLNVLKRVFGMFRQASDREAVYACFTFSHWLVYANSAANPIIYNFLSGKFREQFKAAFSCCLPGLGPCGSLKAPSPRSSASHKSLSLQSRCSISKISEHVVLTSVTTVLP
As to the kind of experiment: Assay A: In vitro testing of OX1R potency: OX1R IP1 (HTRF, CHO-K1/hOX1 cells, Orexin A as agonist). Format: cell-based. The following applies: OX1R Kb at 0.5 nM Orexin A. (In general: TR-FRET usually uses a lanthanide donor and a delayed reading to cut background.)
For the compound `CCN(C(=O)c1ccc(F)cc1-c1nnc(C)o1)[C@@H](C)COc1ncc(C(F)(F)F)cc1F` [Example 55], the “OX2R Kb/OX1R Kb” value came out at 430.
`CCN(C(=O)c1cccc(F)c1-n1nccn1)[C@@H](C)COc1ncc(Br)cc1F` [Example 112]: the “OX2R Kb/OX1R Kb” value was 168.
Same read-out and setting: in the case of `CCN(C(=O)c1cc(F)cc(F)c1-n1nccn1)[C@@H](C)COc1ccc(Cl)cn1` [Example 32] it was 106; in that of `CCN(C(=O)c1cccc(F)c1-c1nnc(C)o1)[C@@H](C)COc1ccc(C(F)(F)F)cn1` [Example 18], 273.
Regarding `CCN(C(=O)c1ccc(C)cc1-c1nnc(C)o1)[C@@H](C)COc1ccc(Cl)cn1` [Example 38], the “OX2R Kb/OX1R Kb” value turned out to be 313.

Staying with this series, now noted: OX1R Kb at 50 nM Orexin A.
Regarding `CCN(C(=O)c1ccccc1-c1ncccn1)[C@@H](C)COc1ccc(C(F)(F)F)cn1` [Example 102], the “OX2R Kb/OX1R Kb” value came to 1080.
Still for that read-out and setting: the figure for `CCN(C(=O)c1cccc(C)c1-c1nnc(C)o1)[C@@H](C)COc1ccc(C(F)(F)F)cn1` [Example 20] is 292; for `CCN(C(=O)c1cc(F)ccc1-n1nccn1)[C@@H](C)COc1ccc(C(F)(F)F)cn1` [Example 3] it is 157.
Still for that read-out and setting: the figure for `CCN(C(=O)c1cccc(F)c1-n1nccn1)[C@@H](C)COc1ncc(Br)cc1F` [Example 112] is 192; for `CCN(C(=O)c1cc(F)cc(F)c1-n1nccn1)[C@@H](C)COc1ccc(Cl)cn1` [Example 32] it is 143.
For `CCN(C(=O)c1cc(C#N)ccc1-n1nccn1)[C@@H](C)COc1ncc(C(F)(F)F)cc1F` [Example 57], the “OX2R Kb/OX1R Kb” value came to 214.

The same series, now with this note: Orexin A 0.5 nM; read-out: OX1R Kb (Orexin A concentration used).
Regarding `CCN(C(=O)c1ccc(F)cc1-c1nnc(C)o1)[C@@H](C)COc1ncc(C(F)(F)F)cc1F` [Example 55], the Kb was 7.2 nM.
Still for that read-out and setting: in the case of `CCN(C(=O)c1cccc(F)c1-n1nccn1)[C@@H](C)COc1ncc(Br)cc1F` [Example 112] it was 0.57 nM; in that of `CCN(C(=O)c1cc(F)cc(F)c1-n1nccn1)[C@@H](C)COc1ccc(Cl)cn1` [Example 32], 1.1 nM.
Still for that read-out and setting: the figure for `CCN(C(=O)c1cccc(F)c1-c1nnc(C)o1)[C@@H](C)COc1ccc(C(F)(F)F)cn1` [Example 18] is 0.8 nM; for `CCN(C(=O)c1ccc(C)cc1-c1nnc(C)o1)[C@@H](C)COc1ccc(Cl)cn1` [Example 38] it is 2.8 nM.

Still in this series, the particulars now being: Orexin A 50 nM; read-out: OX1R Kb (Orexin A concentration used).
Take `CCN(C(=O)c1ccccc1-c1ncccn1)[C@@H](C)COc1ccc(C(F)(F)F)cn1` [Example 102]: the Kb came out at 0.025 nM.
On the same count and under the same terms, in the case of `CCN(C(=O)c1cccc(C)c1-c1nnc(C)o1)[C@@H](C)COc1ccc(C(F)(F)F)cn1` [Example 20] it was 0.12 nM; in that of `CCN(C(=O)c1cc(F)ccc1-n1nccn1)[C@@H](C)COc1ccc(C(F)(F)F)cn1` [Example 3], 0.28 nM; in that of `CCN(C(=O)c1cccc(F)c1-n1nccn1)[C@@H](C)COc1ncc(Br)cc1F` [Example 112], 0.5 nM.
On the same count and under the same terms, in the case of `CCN(C(=O)c1cc(F)cc(F)c1-n1nccn1)[C@@H](C)COc1ccc(Cl)cn1` [Example 32] it was 0.82 nM.
The same measure, in the same setting: the figure for `CCN(C(=O)c1cc(C#N)ccc1-n1nccn1)[C@@H](C)COc1ncc(C(F)(F)F)cc1F` [Example 57] is 0.95 nM.

Test system in a further series: not listed separately
Put plainly: Assay C: Metabolic stability in human liver microsomes (Human MST). Format: in vitro ADME. The settings on record: pooled human liver microsomes, pH 7.6; human liver microsomes 1 mg/mL, compound 1 μM, 37° C., NADPH; read-out: Human MST t1/2. Here is the method:
C. Assessment of Metabolic Stability in Human Liver Microsomes (Human MST)
The metabolic stability of the compounds according to the invention may be investigated as follows:
The metabolic degradation of the test compound is assayed at 37° C. with pooled human liver microsomes. The final incubation volume of 100 μL per time point contains TRIS buffer pH 7.6 at room temperature (0.1 M), MgCl2 (5 mM), microsomal protein (1 mg/mL) and the test compound at a final concentration of 1 μM. Following a short pre-incubation period at 37° C., the reactions are initiated by addition of beta-nicotinamide adenine dinucleotide phosphate, reduced form (NADPH, 1 mM), and terminated by transferring an aliquot into solvent after different time points. After centrifugation (10000 g, 5 min), an aliquot of the supernatant is assayed by LC-MS/MS for the amount of parent compound. The half-life (t1/2) is determined by the slope of the semi-logarithmic plot of the concentration-time profile.
In the case of `CCN(C(=O)c1ccc(F)cc1-c1nnc(C)o1)[C@@H](C)COc1ncc(C(F)(F)F)cc1F` [Example 55], the half-life at 1 μM came to 64 min.
For the compound `CCN(C(=O)c1ccccc1-c1ncccn1)[C@@H](C)COc1ccc(C(F)(F)F)cn1` [Example 102], the half-life at 1 μM amounted to 36 min.
The same measure, in the same setting: the figure for `CCN(C(=O)c1cccc(C)c1-c1nnc(C)o1)[C@@H](C)COc1ccc(C(F)(F)F)cn1` [Example 20] is 20 min; for `CCN(C(=O)c1cc(F)ccc1-n1nccn1)[C@@H](C)COc1ccc(C(F)(F)F)cn1` [Example 3] it is 62 min; for `CCN(C(=O)c1cccc(F)c1-n1nccn1)[C@@H](C)COc1ncc(Br)cc1F` [Example 112] it is 67 min.
Same read-out and setting: the figure for `CCN(C(=O)c1cc(F)cc(F)c1-n1nccn1)[C@@H](C)COc1ccc(Cl)cn1` [Example 32] is 46 min; for `CCN(C(=O)c1cccc(F)c1-c1nnc(C)o1)[C@@H](C)COc1ccc(C(F)(F)F)cn1` [Example 18] it is 74 min; for `CCN(C(=O)c1cc(C#N)ccc1-n1nccn1)[C@@H](C)COc1ncc(C(F)(F)F)cc1F` [Example 57] it is over 130 min.
Same read-out and setting: the figure for `CCN(C(=O)c1ccc(C)cc1-c1nnc(C)o1)[C@@H](C)COc1ccc(Cl)cn1` [Example 38] is 11 min; for `CC[C@@H](CNc1ccc(Cl)cn1)N(C)C(=O)c1cc(C)ccc1-n1nccn1` [Ex 1 in WO2016/034882, reference compound] it is 5 min.
